Measured values taken from publication PMC9558053, “Development of a novel high-throughput screen for the identification of new inhibitors of protein S-acylation” (The Journal of Biological Chemistry, 2022).

Target: T1, human zDHHC7 (Homo sapiens, UniProt Q9NXF8)
T1 construct: expressed in transfected cells; host or cells: HEK293T
T1 sequence (Q9NXF8 1-308): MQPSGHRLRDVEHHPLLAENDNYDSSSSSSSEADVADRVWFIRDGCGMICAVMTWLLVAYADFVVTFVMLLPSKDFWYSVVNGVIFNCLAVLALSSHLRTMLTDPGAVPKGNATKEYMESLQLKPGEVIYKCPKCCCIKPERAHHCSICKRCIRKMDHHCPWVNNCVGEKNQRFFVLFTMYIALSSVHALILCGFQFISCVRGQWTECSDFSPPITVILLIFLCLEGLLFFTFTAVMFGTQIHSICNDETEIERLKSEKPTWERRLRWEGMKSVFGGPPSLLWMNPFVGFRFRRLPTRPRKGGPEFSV
Assay: PSD95-mCHERRY S-acylation in HEK293T cells co-expressing zDHHC7
Type: cell-based
Conditions: 25 μM
Source text: PSD95 (postsynaptic density protein 95) is a major S-acylated protein that has a critical role in the maturation of excitatory neurons and in synaptic plasticity ([46], [47]). PSD95 can be S-acylated by zDHHC2, zDHHC3, zDHHC7, and zDHHC15 ([6]). […] We therefore tested the effects of TTZ-1 and TTZ-2 on the S-acylation of PSD95 mediated by zDHHC2, zDHHC3, zDHHC7, and zDHHC15. […] In contrast, zDHHC3 and zDHHC7 activities toward PSD95 were unaffected by TTZ-1 and TTZ-2, mirroring the data obtained with GFP-SNAP25 as a substrate.
Figure 9 Activity of TTZ-1 and TTZ-2 against PSD95 S-acylation mediated by human zDHHC2, zDHHC3, zDHHC7, and zDHHC15 expressed in mammalian cells. HEK293T cells were transfected with a plasmid encoding PSD95-mCHERRY together with either a control plasmid pEF-BOS-HA (pEF) or a plasmid encoding either HA-tagged human zDHHC2 (zD2), zDHHC3 (zD3), zDHHC7 (zD7), or zDHHC15 (zD15) for 24 h. Cells were then preincubated for 4 h with TTZ-1 or TTZ-2 (25 μM final) or DMSO control before metabolic labeling with 100 μM C16:0-azide for 4 h. Cells were lysed, and proteins having incorporated C16:0-azide were labeled by click chemistry with an alkyne-IR800 dye. […] The data were quantified, and the graphs below each set of membranes show mean ± SEM of normalized S-acylation of PSD95-mCHERRY (click signal/RFP signal). […]

CCCCCCCOc1ccc(C(=O)Nc2cccc3c2OC(c2nnn[nH]2)CN3)cc1 (centres unmarked) [TTZ-1, N-(2-(1H-Tetrazol-5-yl)-3,4-dihydro-2H-benzo[b][1,4]oxazin-8-yl)-4-(heptyloxy)benzamide]
PSD95-mCHERRY S-acylation by zDHHC7: unaffected

O=C(Nc1cccc2c1OC(c1nnn[nH]1)CN2)c1ccc(OCCCCc2ccccc2)cc1 (centres unmarked) [TTZ-2, N-(2-(1H-Tetrazol-5-yl)-3,4-dihydro-2H-benzo[b][1,4]oxazin-8-yl)-4-(4-phenylbutoxy)benzamide]
PSD95-mCHERRY S-acylation by zDHHC7: unaffected
